For experiment [1], the target named is T1, HCV NS5B RdRp genotype 1b (Hepatitis C virus genotype 1b, UniProt Q9WMX2).
T1 construct: The protein was expressed with an 18 amino acid C-terminal truncation to enhance the solubility; made in house; host or cells: E. coli BL21(DE3), pET21a vector
Briefly: Standard HCV NS5B RdRp enzyme assay. It is filed as biochemical. As to conditions: Table 1a; HCV NS5B RdRp genotype 1b; read-out: IC50. The method in brief:
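C-terminally truncated (18 aa) genotype 1b NS5B from E. coli, 28 nM, with 6 nM polyA template, 180 nM biotinylated oligo-dT12 primer and 3H-UTP (0.29 μM total UTP). Hepes pH 7.5 buffer with 2% DMSO; 60 min at 30° C. EDTA stop, SPA read-out; IC50 from seven concentrations by four-parameter fit.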

A further experiment relates to HCV replicon cells. Description: HCV replicon FRET / luciferase assay (96-well plates). It is filed as cell-based. As to conditions: Hepatitis C virus, Table 1a; HCV replicon; read-out: EC50. The method in brief:
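Replicon cells + titrated cpds, 37 °C CO2. Alamar blue for cytotoxicity, PBS rinse, then lysis reagent w/ 20 μM FRET peptide (EDANS/DABCYL), 150 mM NaCl; kinetic read ex340/em490, 20 cycles. Alt: Dual-Glo luciferase. EC50 = 50% drop in FRET/luciferase signal after background subtraction.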
In general terms: A replicon is a self-replicating genome or part of one, used to study replication in cells.

Each structure is given as a SMILES string.

The IC50 is the concentration that gives 50% inhibition. A word on the EC50: it is the concentration at which the effect is half-maximal.

T1 sequence (Q9WMX2 2420-2992): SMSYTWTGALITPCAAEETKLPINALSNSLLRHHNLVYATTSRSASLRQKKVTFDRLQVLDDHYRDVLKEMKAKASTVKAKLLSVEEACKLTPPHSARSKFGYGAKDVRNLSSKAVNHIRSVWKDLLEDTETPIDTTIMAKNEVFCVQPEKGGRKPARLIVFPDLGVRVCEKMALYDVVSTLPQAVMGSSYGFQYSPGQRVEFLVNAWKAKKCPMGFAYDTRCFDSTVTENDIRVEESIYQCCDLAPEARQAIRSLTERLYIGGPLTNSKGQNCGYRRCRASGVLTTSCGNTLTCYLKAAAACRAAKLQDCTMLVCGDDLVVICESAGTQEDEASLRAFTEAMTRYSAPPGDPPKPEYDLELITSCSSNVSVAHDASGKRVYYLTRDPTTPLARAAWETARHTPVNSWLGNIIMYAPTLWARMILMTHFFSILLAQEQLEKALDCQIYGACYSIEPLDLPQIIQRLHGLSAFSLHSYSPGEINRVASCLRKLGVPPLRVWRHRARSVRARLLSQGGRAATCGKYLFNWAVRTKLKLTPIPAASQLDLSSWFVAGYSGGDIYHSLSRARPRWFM

With `CNC(=O)c1c(-c2ccc(F)cc2)oc2ccc(-c3cccc(C(=O)NCC(C)(C)C)c3)cc12`, the IC50 in experiment [1] was under 0.25 µM. In the experiment on HCV replicon cells, the EC50 was under 0.25 µM.
`CNC(=O)c1c(-c2ccc(F)cc2)oc2ccc(-c3cccc(C(=O)NCC4CC4)c3)cc12`: the IC50 in experiment [1] is under 0.25 µM. Also, in the experiment with HCV replicon cells, the half-maximal effective concentration (EC50) was under 0.25 µM.
For `CCC(CC)NC(=O)c1cccc(-c2ccc3oc(-c4ccc(F)cc4)c(C(=O)NC)c3c2)c1`, the IC50 in experiment [1] is under 0.25 µM. For the same compound, the 50% effective concentration (EC50) in the experiment with HCV replicon cells is under 0.25 µM.
Consider `CCC(C)NC(=O)c1cccc(-c2ccc3oc(-c4ccc(F)cc4)c(C(=O)NC)c3c2)c1` (centres unmarked), for which the concentration for half-maximal inhibition (IC50) in experiment [1] was under 0.25 µM. The concentration for a half-maximal effect (EC50) with HCV replicon cells was under 0.25 µM.
`CNC(=O)c1c(-c2ccc(F)cc2)oc2ccc(-c3cccc(C(=O)NCc4ccccc4N)c3)cc12`: the half-maximal inhibitory concentration (IC50) in experiment [1] was 1 to 10 µM. Also, the concentration for a half-maximal effect (EC50) with HCV replicon cells was in the range of 1 to 10 µM.
`CNC(=O)c1c(-c2ccc(F)cc2)oc2ccc(-c3cccc(C(=O)N(C)CCOC)c3)cc12`: the half-inhibitory concentration (IC50) in experiment [1] was in the range of 1 to 10 µM. Also, the 50% effective concentration (EC50) in the experiment on HCV replicon cells fell in the range of 1 to 10 µM.
In the case of `C#CCNC(=O)c1cccc(-c2ccc3oc(-c4ccc(F)cc4)c(C(=O)NC)c3c2)c1`, the half-inhibitory concentration (IC50) in experiment [1] is 0.25 to 1 µM. Besides, the half-maximal effective concentration (EC50) in the experiment on HCV replicon cells lay within 1 to 10 µM.
For `CNC(=O)c1c(-c2ccc(F)cc2)oc2ccc(-c3cccc(C(=O)NCc4ccccc4F)c3)cc12` the same measures were 0.25 to 1 µM and 1 to 10 µM.
In the case of `CNC(=O)c1c(-c2ccc(F)cc2)oc2ccc(-c3cccc(C(=O)N4CCCC4C)c3)cc12` (centres unmarked), the concentration for half-maximal inhibition (IC50) in experiment [1] was 0.25 to 1 µM. Moreover, the EC50 with HCV replicon cells lay in the range of 1 to 10 µM.
The corresponding values for `CNC(=O)c1c(-c2ccc(F)cc2)oc2ccc(-c3cccc(C(=O)N4CC[C@@H](O)C4)c3)cc12` are 1 to 10 µM and 1 to 10 µM.
Turning to `CNC(=O)c1c(-c2ccc(F)cc2)oc2ccc(-c3cccc(C(=O)N(CCOC)CCOC)c3)cc12`, the concentration for half-maximal inhibition (IC50) in experiment [1] lay in the range of 1 to 10 µM. In addition, the EC50 with HCV replicon cells lay within 1 to 10 µM.
Regarding `CCN1CCN(C(=O)c2cccc(-c3ccc4oc(-c5ccc(F)cc5)c(C(=O)NC)c4c3)c2)CC1`, in experiment [1], the IC50 lay within 1 to 10 µM. In the experiment with HCV replicon cells, the EC50 was 1 to 10 µM.
Take `CNC(=O)c1c(-c2ccc(F)cc2)oc2ccc(-c3cccc(C(=O)NCCNC(C)=O)c3)cc12`: the IC50 in experiment [1] was 1 to 10 µM. Besides, the half-maximal effective concentration (EC50) in the experiment on HCV replicon cells was 1 to 10 µM.
Regarding `CNC(=O)c1c(-c2ccc(F)cc2)oc2ccc(-c3cccc(C(=O)N(C)CCN(C)C)c3)cc12`, in experiment [1], the half-maximal inhibitory concentration (IC50) was over 10 µM. Moreover, in the experiment with HCV replicon cells, the EC50 was in the range of 1 to 10 µM.
For `CNC(=O)c1c(-c2ccc(F)cc2)oc2ccc(-c3cccc(C(=O)Nc4cccc(OC)c4)c3)cc12` the same measures were 1 to 10 µM and 1 to 10 µM.
For `CCOC(=O)C1CCCN(C(=O)c2cccc(-c3ccc4oc(-c5ccc(F)cc5)c(C(=O)NC)c4c3)c2)C1` (centres unmarked) the same measures were 1 to 10 µM and 1 to 10 µM.
For `CNC(=O)c1c(-c2ccc(F)cc2)oc2ccc(-c3cccc(C(=O)N4CC(C)OC(C)C4)c3)cc12` (centres unmarked) the same measures were 1 to 10 µM and 1 to 10 µM.
As to `CNC(=O)c1c(-c2ccc(F)cc2)oc2ccc(-c3cccc(C(=O)N4CCC[C@H]4CO)c3)cc12`, the IC50 in experiment [1] lay within 0.25 to 1 µM. Moreover, the EC50 with HCV replicon cells lay within 1 to 10 µM.
For the compound `CNC(=O)c1c(-c2ccc(F)cc2)oc2ccc(-c3cccc(C(=O)N(C)CCO)c3)cc12`, the IC50 in experiment [1] was in the range of 1 to 10 µM. Besides, in the experiment with HCV replicon cells, the EC50 is 1 to 10 µM.
As to `CNC(=O)c1c(-c2ccc(F)cc2)oc2ccc(-c3cccc(C(=O)N4CCCC(C)C4)c3)cc12` (centres unmarked), the half-maximal inhibitory concentration (IC50) in experiment [1] lay within 1 to 10 µM. Further, the EC50 with HCV replicon cells is 1 to 10 µM.
Turning to `CNC(=O)c1c(-c2ccc(F)cc2)oc2ccc(-c3cccc(C(=O)Nc4ccccc4Cl)c3)cc12`, the half-maximal inhibitory concentration (IC50) in experiment [1] is 1 to 10 µM. In addition, the EC50 in the experiment on HCV replicon cells is 1 to 10 µM.
Regarding `CNC(=O)c1c(-c2ccc(F)cc2)oc2ccc(-c3cccc(C(=O)Nc4cccc(O)c4)c3)cc12`, in experiment [1], the concentration for half-maximal inhibition (IC50) lay within 1 to 10 µM. For the same compound, the 50% effective concentration (EC50) with HCV replicon cells lay within 1 to 10 µM.
For the compound `CNC(=O)c1c(-c2ccc(F)cc2)oc2ccc(-c3cccc(C(=O)N4CCCC(CO)C4)c3)cc12` (centres unmarked), in experiment [1], the half-maximal inhibitory concentration (IC50) lay within 1 to 10 µM. Besides, the EC50 with HCV replicon cells is 1 to 10 µM.
`CNC(=O)c1c(-c2ccc(F)cc2)oc2ccc(-c3ccc(C(=O)N4CC[C@H](NC(C)=O)C4)cc3)cc12`: in experiment [1], the 50% inhibitory concentration (IC50) was in the range of 1 to 10 µM. In addition, the EC50 in the experiment with HCV replicon cells lay in the range of 1 to 10 µM.
For the compound `CCN(Cc1ccncc1)C(=O)c1ccc(-c2ccc3oc(-c4ccc(F)cc4)c(C(=O)NC)c3c2)cc1`, the half-inhibitory concentration (IC50) in experiment [1] is over 10 µM. For the same compound, the EC50 in the experiment on HCV replicon cells was in the range of 1 to 10 µM.
For the compound `CNC(=O)c1c(-c2ccc(F)cc2)oc2ccc(-c3ccc(C(=O)NCC(=O)OC)cc3)cc12`, in experiment [1], the IC50 was over 10 µM. Further, the half-maximal effective concentration (EC50) with HCV replicon cells is 1 to 10 µM.
The corresponding values for `CNC(=O)c1c(-c2ccc(F)cc2)oc2ccc(-c3ccc(C(=O)N(C)C4CCN(C)C4)cc3)cc12` (centres unmarked) are over 10 µM and 1 to 10 µM.
The corresponding values for `CNC(=O)c1c(-c2ccc(F)cc2)oc2ccc(-c3ccc(C(=O)NCCc4ccc(F)cc4)cc3)cc12` are over 10 µM and 1 to 10 µM.
The corresponding values for `CNC(=O)c1c(-c2ccc(F)cc2)oc2ccc(-c3ccc(C(=O)NCCO)cc3)cc12` are over 10 µM and 1 to 10 µM.
On to `CNC(=O)c1c(-c2ccc(F)cc2)oc2ccc(-c3cccc(C(=O)Nc4ccon4)c3)cc12`, for which, in experiment [1], the concentration for half-maximal inhibition (IC50) lay within 0.25 to 1 µM. Moreover, in the experiment with HCV replicon cells, the EC50 lay within 1 to 10 µM.
For the compound `CNC(=O)c1c(-c2ccc(F)cc2)oc2ccc(-c3cccc(C(=O)Nc4cc(C)no4)c3)cc12`, in experiment [1], the IC50 fell in the range of 1 to 10 µM. In addition, in the experiment on HCV replicon cells, the EC50 lay within 1 to 10 µM.
`CNC(=O)c1c(-c2ccc(F)cc2)oc2ccc(-c3ccc(Cl)c(C(=O)NCC(C)C)c3)cc12`: in experiment [1], the IC50 lay within 1 to 10 µM. Further, the EC50 in the experiment on HCV replicon cells was 1 to 10 µM.
As for `CNC(=O)c1c(-c2ccc(F)cc2)oc2ccc(-c3cccc(C(=O)N[C@@H](C)C(=O)OC)c3)cc12`, the IC50 in experiment [1] was under 0.25 µM. In addition, the concentration giving a half-maximal response (EC50) with HCV replicon cells was 1 to 10 µM.
Take `CNC(=O)c1c(-c2ccc(F)cc2)oc2ccc(-c3cccc(C(=O)N[C@H](CO)Cc4c[nH]cn4)c3)cc12`: the half-maximal inhibitory concentration (IC50) in experiment [1] was in the range of 1 to 10 µM. Besides, the concentration giving a half-maximal response (EC50) with HCV replicon cells lay within 1 to 10 µM.
With `CCOC(=O)[C@H](C)NC(=O)c1cccc(-c2ccc3oc(-c4ccc(F)cc4)c(C(=O)NC)c3c2)c1`, in experiment [1], the IC50 was under 0.25 µM. Moreover, the EC50 with HCV replicon cells fell in the range of 1 to 10 µM.
`CNC(=O)c1c(-c2ccc(F)cc2)oc2ccc(-c3cccc(C(=O)N[C@@H](CO)c4ccccc4)c3)cc12`: the IC50 in experiment [1] lay within 0.25 to 1 µM. For the same compound, the 50% effective concentration (EC50) in the experiment with HCV replicon cells lay in the range of 1 to 10 µM.
The corresponding values for `CNC(=O)c1c(-c2ccc(F)cc2)oc2ccc(-c3cccc(C(=O)NC(CO)C(=O)OC)c3)cc12` (centres unmarked) are 0.25 to 1 µM and 1 to 10 µM.
For `CNC(=O)c1c(-c2ccc(F)cc2)oc2ccc(-c3cccc(C(=O)Nc4ccc(O)nc4)c3)cc12` the same measures were 1 to 10 µM and 1 to 10 µM.
The corresponding values for `CNC(=O)c1c(-c2ccc(F)cc2)oc2ccc(-c3cccc(C(=O)N[C@H](C(N)=O)C(C)C)c3)cc12` are 0.25 to 1 µM and 1 to 10 µM.
For `CNC(=O)c1c(-c2ccc(F)cc2)oc2ccc(-c3cccc(C(=O)N[C@H](CO)C(=O)OC)c3)cc12`, in experiment [1], the IC50 was 0.25 to 1 µM. For the same compound, the EC50 in the experiment on HCV replicon cells lay in the range of 1 to 10 µM.
The corresponding values for `CCOC(=O)C(NC(=O)c1cccc(-c2ccc3oc(-c4ccc(F)cc4)c(C(=O)NC)c3c2)c1)C(C)C` (centres unmarked) are 0.25 to 1 µM and 1 to 10 µM.
With `CNC(=O)c1c(-c2ccc(F)cc2)oc2ccc(-c3cccc(C(=O)N[C@@H](C)C(=O)NC)c3)cc12`, in experiment [1], the 50% inhibitory concentration (IC50) fell in the range of 0.25 to 1 µM. Besides, the EC50 with HCV replicon cells lay within 1 to 10 µM.
For `CNC(=O)c1c(-c2ccc(F)cc2)oc2ccc(-c3cccc(C(=O)N[C@@H](CO)CC(C)C)c3)cc12` the same measures were 1 to 10 µM and 1 to 10 µM.

The values are drawn from patent publication US8309558B2, “Compounds for the treatment of hepatitis C” (Bristol-Myers Squibb Company, priority 2008, dated 2012).
